Laboratory results: PubChem BioAssay (NCI)
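Step 1: Grow cells in 96-well plates. Step 2: Expose to compound for 48 hours at 5 concentrations. Step 3: Interpolate endpoints linearly; if unreached, use highest concentration. GI50: concentration for 50% inhibition of growth. TGI marks complete inhibition of growth.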

Columns and labels:
Assay in all cases: NCI tumour cell line growth inhibition, 48 h
786-0 renal = tested on: 786-0 renal
A498 renal = tested on: A498 renal
A549 NSCLC = tested on: A549 NSCLC
ACHN renal = tested on: ACHN renal
BT-549 breast = tested on: BT-549 breast
CAKI-1 renal = tested on: CAKI-1 renal
CCRF-CEM leukemia = tested on: CCRF-CEM leukemia
COLO 205 colon = tested on: COLO 205 colon
DU-145 prostate = tested on: DU-145 prostate
EKVX NSCLC = tested on: EKVX NSCLC
HCC-2998 colon = tested on: HCC-2998 colon
HCT-116 colon = tested on: HCT-116 colon
HCT-15 colon = tested on: HCT-15 colon
HOP-62 NSCLC = tested on: HOP-62 NSCLC
HS 578T breast = tested on: HS 578T breast
HT29 colon = tested on: HT29 colon
IGROV1 ovarian = tested on: IGROV1 ovarian
K-562 leukemia = tested on: K-562 leukemia
KM12 colon = tested on: KM12 colon
LOX IMVI melanoma = tested on: LOX IMVI melanoma
M14 melanoma = tested on: M14 melanoma
MALME-3M melanoma = tested on: MALME-3M melanoma
MCF7 breast = tested on: MCF7 breast
MDA-MB-231 breast = tested on: MDA-MB-231 breast
MDA-MB-435 = tested on: MDA-MB-435
NCI-H226 lung = tested on: NCI-H226 lung
NCI-H23 lung = tested on: NCI-H23 lung
NCI-H460 lung = tested on: NCI-H460 lung
NCI-H522 lung = tested on: NCI-H522 lung
NCI/ADR-RES ovarian = tested on: NCI/ADR-RES ovarian
OVCAR-3 ovarian = tested on: OVCAR-3 ovarian
OVCAR-4 ovarian = tested on: OVCAR-4 ovarian
OVCAR-5 ovarian = tested on: OVCAR-5 ovarian
OVCAR-8 ovarian = tested on: OVCAR-8 ovarian
PC-3 prostate = tested on: PC-3 prostate
RXF 393 renal = tested on: RXF 393 renal
SF-268 CNS = tested on: SF-268 CNS
SF-295 CNS = tested on: SF-295 CNS
SF-539 CNS = tested on: SF-539 CNS
SK-MEL-2 melanoma = tested on: SK-MEL-2 melanoma
SK-MEL-28 melanoma = tested on: SK-MEL-28 melanoma
SK-MEL-5 melanoma = tested on: SK-MEL-5 melanoma
SK-OV-3 ovarian = tested on: SK-OV-3 ovarian
SN12C renal = tested on: SN12C renal
SNB-19 CNS = tested on: SNB-19 CNS
SNB-75 CNS = tested on: SNB-75 CNS
SR leukemia = tested on: SR leukemia
SW-620 colon = tested on: SW-620 colon
TK-10 renal = tested on: TK-10 renal
U251 CNS = tested on: U251 CNS
UACC-257 melanoma = tested on: UACC-257 melanoma
UACC-62 melanoma = tested on: UACC-62 melanoma
UO-31 renal = tested on: UO-31 renal

Structure (SMILES): N#CC(NC(=O)CCl)=C(Cl)Cl
- GI50 (786-0 renal): 2130 nM
- TGI (786-0 renal): 5870 nM
- GI50 (A498 renal): 1860 nM
- TGI (A498 renal): 3880 nM
- GI50 (A549 NSCLC): 3510 nM
- TGI (A549 NSCLC): 13800 nM
- GI50 (ACHN renal): 1220 nM
- TGI (ACHN renal): 2510 nM
- GI50 (BT-549 breast): 1930 nM
- TGI (BT-549 breast): 4100 nM
- GI50 (CAKI-1 renal): 1690 nM
- TGI (CAKI-1 renal): 3140 nM
- GI50 (CCRF-CEM leukemia): 377 nM
- TGI (CCRF-CEM leukemia): 1790 nM
- GI50 (COLO 205 colon): 1440 nM
- TGI (COLO 205 colon): 2990 nM
- GI50 (DU-145 prostate): 1690 nM
- TGI (DU-145 prostate): 4020 nM
- GI50 (EKVX NSCLC): 1850 nM
- TGI (EKVX NSCLC): 3810 nM
- GI50 (HCC-2998 colon): 1890 nM
- TGI (HCC-2998 colon): 3410 nM
- GI50 (HCT-116 colon): 1020 nM
- TGI (HCT-116 colon): 3700 nM
- GI50 (HCT-15 colon): 680 nM
- TGI (HCT-15 colon): 2340 nM
- GI50 (HOP-62 NSCLC): 2150 nM
- TGI (HOP-62 NSCLC): 4830 nM
- GI50 (HS 578T breast): 3460 nM
- TGI (HS 578T breast): 17100 nM
- GI50 (HT29 colon): 1760 nM
- TGI (HT29 colon): 3440 nM
- GI50 (IGROV1 ovarian): 1180 nM
- TGI (IGROV1 ovarian): 2920 nM
- GI50 (K-562 leukemia): 595 nM
- TGI (K-562 leukemia): 2710 nM
- GI50 (KM12 colon): 1880 nM
- TGI (KM12 colon): 4170 nM
- GI50 (LOX IMVI melanoma): 1570 nM
- TGI (LOX IMVI melanoma): 3100 nM
- GI50 (M14 melanoma): 1340 nM
- TGI (M14 melanoma): 2870 nM
- GI50 (MALME-3M melanoma): 1490 nM
- TGI (MALME-3M melanoma): 3020 nM
- GI50 (MCF7 breast): 1220 nM
- TGI (MCF7 breast): 9070 nM
- GI50 (MDA-MB-231 breast): 1730 nM
- TGI (MDA-MB-231 breast): 3240 nM
- GI50 (MDA-MB-435): 1940 nM
- TGI (MDA-MB-435): 4030 nM
- GI50 (NCI-H226 lung): 2590 nM
- TGI (NCI-H226 lung): 6560 nM
- GI50 (NCI-H23 lung): 1700 nM
- TGI (NCI-H23 lung): 3560 nM
- GI50 (NCI-H460 lung): 2690 nM
- TGI (NCI-H460 lung): 7470 nM
- GI50 (NCI-H522 lung): 437 nM
- TGI (NCI-H522 lung): 1830 nM
- GI50 (NCI/ADR-RES ovarian): 2950 nM
- TGI (NCI/ADR-RES ovarian): 16800 nM
- GI50 (OVCAR-3 ovarian): 1130 nM
- TGI (OVCAR-3 ovarian): 2460 nM
- GI50 (OVCAR-4 ovarian): 1760 nM
- TGI (OVCAR-4 ovarian): 3600 nM
- GI50 (OVCAR-5 ovarian): 1960 nM
- TGI (OVCAR-5 ovarian): 3470 nM
- GI50 (OVCAR-8 ovarian): 2210 nM
- TGI (OVCAR-8 ovarian): 6080 nM
- GI50 (PC-3 prostate): 1690 nM
- TGI (PC-3 prostate): 4220 nM
- GI50 (RXF 393 renal): 1270 nM
- TGI (RXF 393 renal): 2640 nM
- GI50 (SF-268 CNS): 1970 nM
- TGI (SF-268 CNS): 4660 nM
- GI50 (SF-295 CNS): 2740 nM
- TGI (SF-295 CNS): 8010 nM
- GI50 (SF-539 CNS): 1840 nM
- TGI (SF-539 CNS): 3530 nM
- GI50 (SK-MEL-2 melanoma): 2160 nM
- TGI (SK-MEL-2 melanoma): 5240 nM
- GI50 (SK-MEL-28 melanoma): 1560 nM
- TGI (SK-MEL-28 melanoma): 3030 nM
- GI50 (SK-MEL-5 melanoma): 1570 nM
- TGI (SK-MEL-5 melanoma): 3270 nM
- GI50 (SK-OV-3 ovarian): 5050 nM
- TGI (SK-OV-3 ovarian): 16000 nM
- GI50 (SN12C renal): 1730 nM
- TGI (SN12C renal): 3260 nM
- GI50 (SNB-19 CNS): 1670 nM
- TGI (SNB-19 CNS): 3170 nM
- GI50 (SNB-75 CNS): 1630 nM
- TGI (SNB-75 CNS): 4270 nM
- GI50 (SR leukemia): 702 nM
- TGI (SR leukemia): 2680 nM
- GI50 (SW-620 colon): 1440 nM
- TGI (SW-620 colon): 3490 nM
- GI50 (TK-10 renal): 1740 nM
- TGI (TK-10 renal): 3400 nM
- GI50 (U251 CNS): 1750 nM
- TGI (U251 CNS): 3790 nM
- GI50 (UACC-257 melanoma): 1550 nM
- TGI (UACC-257 melanoma): 3090 nM
- GI50 (UACC-62 melanoma): 1340 nM
- TGI (UACC-62 melanoma): 2690 nM
- GI50 (UO-31 renal): 1250 nM
- TGI (UO-31 renal): 2560 nM
